Experimental data published in EP0136586A2, “Novel corticoid derivatives and process for production thereof” (priority 1983, dated 1985).

Columns and labels:
edema = assay: Topical anti-inflammatory activity (croton oil ear edema); type: in vivo, Male mice of ddY-strain; conditions: for Anti-inflammatory activity ratio (A): ratio against clobetasol 17-propionate (=1), linear regression parallel test method, edema-repressing rate, topical application to mouse ear with croton oil, 5th hour after application; for R=A/B: anti-inflammatory activity ratio (A) divided by thymolytic activity ratio (B)
Method: 0.9 % sodium chloride, 0.4 % Tween 80, 0.5 % carboxymethyl cellulose and 0.9 % benzyl alcohol are dissolved or suspended in distilled water, which is used as a suspending medium. The compounds to be tested are dissolved in a mixture of the suspending medium : pyridine : diethyl ether = 1 : 4 : 5 and mixed with equal volume of diethyl ether containing 10 % croton oil and the mixture is used as the test liquid. Commercially available felt having a thickness of 5 mm is cut in 7mm x 7 mm square and adhered to ring tweezers using alkyl-a-cyanoacrylate. The felt is soaked in the test liquid and the liquid is applied to the right ear of the mouse by rubbing it with the felt at a fixed pressure without anesthesia. The left ear is left untreated. At 5th hours after application, mice are killed and both of the ears are cut and weighed. The rate (%) of increase in the weight of right ear against that of left ear is calculated as the edema ratio. Edema ratios obtained on the test compounds are compared with those obtained on control and edema-repressing rate is obtained.

thymus gland = conditions: rat, in vivo, sc, 11520 min
Method: 2) Experiment on thymolytic action
The compounds to be tested are dissolved in a liquid consisting of croton oil : cotton seed oil : ethanol = 1:89:10 and the solution is used for injection.
The rats are anesthesized by inhalation of ether and 20 ml of air are subcutaneously injected into hypodermic organ at the back of the rats using a thin injection needle to form an oval-shaped air cavity. After the rats recovered from anesthesia they are kept on normal food and water. At 8th days after injection, rats are killed by depletion and dissected. The thymus gland is taken out and the wet weight is measured. Thymus weights obtained on the test compounds are divided with those obtained on control, and thymus gland atrophy rate is obtained.
In each of the experiments on anti-inflammatory activity and thymolytic action, clobetasol 17-propionate and betamethasone 17,21-dipropionate are used standard compounds and anti-inflammatory activity ratio and thymolytic activity ratio against clobetasol 17-propionate are calculated using linear regression parallel test method.

With “21-chloro-9a-fluoro-16a-methyl-l,4-pregnadiene-11β,17α-diol-3,6,20-trione 17a-methyl carbonate [Example 8]” the “Anti-inflammatory activity ratio (A)” value (edema) was 0.51.

“21-chloro-9α-fluoro-16β-mathyl-1,4-pregnadiene-11β,17α-diol-3,6,20-trione 17α-methyl carbonate [Example 2]” was tested, and the “Anti-inflammatory activity ratio (A)” value (edema) was 3.0 and the “Thymolytic activity ratio (B)” value (thymus gland) was 0.018.

In the case of “21-chloro-9α-fluoro-16β-methyl-1,4-pregnadiene-11β,17α-diol-3,6,20-trione 17a-ethyl carbonate [Example 4]”, the “Anti-inflammatory activity ratio (A)” value (edema) is reported as 1.3 and the “Thymolytic activity ratio (B)” value (thymus gland) is reported as 0.048.

With CCC(=O)OCC(=O)[C@@]1(OC(=O)CC)[C@@H](C)C[C@H]2[C@@H]3CCC4=CC(=O)C=C[C@]4(C)[C@@]3(F)[C@@H](O)C[C@@]21C [Betamethasone 17,21-dipropionate, betamethasone 17,21-dipropionate, reference compound] the “R=A/B” value (edema) was 2.7, the “Anti-inflammatory activity ratio (A)” value (edema) was 0.080 and the “Thymolytic activity ratio (B)” value (thymus gland) was 0.030.

With CCC(=O)O[C@]1(C(=O)CCl)[C@@H](C)C[C@H]2[C@@H]3CCC4=CC(=O)C=C[C@]4(C)[C@@]3(F)[C@@H](O)C[C@@]21C [Clobetasol 17-propionate, clobetasol 17-propionate, reference compound] the “R=A/B” value (edema) was 1 and the “Thymolytic activity ratio (B)” value (thymus gland) was 1.

With CCC(=O)O[C@]1(C(=O)CCl)[C@@H](C)C[C@H]2[C@@H]3CC(=O)C4=CC(=O)C=C[C@]4(C)[C@@]3(F)[C@@H](O)C[C@@]21C [Comparative Example 1, 21-chloro-9α-fluoro-16β-methyl-1,4-pregnadiene-11S,17a-diol-3,6,20-trione 17a-propionate, reference compound] the “R=A/B” value (edema) was 1.8, the “Anti-inflammatory activity ratio (A)” value (edema) was 0.53 and the “Thymolytic activity ratio (B)” value (thymus gland) was 0.29.

In the case of COC(=O)O[C@]1(C(=O)CCl)[C@@H](C)C[C@H]2[C@@H]3CCC4=CC(=O)C=C[C@]4(C)[C@@]3(F)[C@@H](O)C[C@@]21C [Comparative Example 2, 21-chloro-9α-fluoro-16β-methyl-1,4-pregnadiene-11β,17α-diol-3,20-dione 17a-methyl carbonate, reference compound], the “R=A/B” value (edema) is reported as 0.8, the “Anti-inflammatory activity ratio (A)” value (edema) is reported as 0.96 and the “Thymolytic activity ratio (B)” value (thymus gland) is reported as 1.2.

In the case of CCCOC(=O)O[C@]1(C(=O)CCl)[C@@H](C)C[C@H]2[C@@H]3CC(=O)C4=CC(=O)C=C[C@]4(C)[C@@]3(F)[C@@H](O)C[C@@]21C [Example 6, 21-chloro-9α-fluoro-16β-methyl-1,4-pregnadiene-11β,17α-diol-3,6,20-trione 17a-propyl carbonate], the “R=A/B” value (edema) is reported as 3.1, the “Anti-inflammatory activity ratio (A)” value (edema) is reported as 0.74 and the “Thymolytic activity ratio (B)” value (thymus gland) is reported as 0.24.

In the case of COC(=O)CCC(=O)O[C@]1(C(=O)CCl)[C@@H](C)C[C@H]2[C@@H]3CCC4=CC(=O)C=C[C@]4(C)[C@@]3(F)[C@@H](O)C[C@@]21C [Example 12, 21-chloro-9α-fluoro-16β-methyl-1,4-pregnadiene-11β,17α-diol-3,20-dione 17a-(6-methoxycarbonyl propionate)], the “R=A/B” value (edema) is reported as 18, the “Anti-inflammatory activity ratio (A)” value (edema) is reported as 1.3 and the “Thymolytic activity ratio (B)” value (thymus gland) is reported as 0.072.

For COC(=O)CCC(=O)O[C@]1(C(=O)CCl)[C@@H](C)C[C@H]2[C@@H]3CC(=O)C4=CC(=O)C=C[C@]4(C)[C@@]3(F)[C@@H](O)C[C@@]21C [Example 13, 21-chloro-9α-fluoro-16β-methyl-1,4-pregnadiene-11β,17α-diol-3,6,20-trione 17α-(β-methoxycarbonyl propionate)], the “R=A/B” value (edema) was over 100, the “Anti-inflammatory activity ratio (A)” value (edema) was 1.0 and the “Thymolytic activity ratio (B)” value (thymus gland) was under 0.01.

COC(=O)CCC(=O)O[C@]1(C(=O)CCl)[C@H](C)C[C@H]2[C@@H]3CCC4=CC(=O)C=C[C@]4(C)[C@@]3(F)[C@@H](O)C[C@@]21C [Example 14, 21-chloro-9α-fluoro-16α-msthyl-1,4-pregnadiene-11β,17α-diol-3,20-dione 17α-(β-methoxycarbonyl propionate)] was tested, and the “R=A/B” value (edema) was over 20, the “Anti-inflammatory activity ratio (A)” value (edema) was 0.2 and the “Thymolytic activity ratio (B)” value (thymus gland) was under 0.01.

CCOC(=O)CCCC(=O)O[C@]1(C(=O)CCl)[C@@H](C)C[C@H]2[C@@H]3CCC4=CC(=O)C=C[C@]4(C)[C@@]3(F)[C@@H](O)C[C@@]21C [Example 15, 21-chloro-9α-fluoro-16β-methyl-1,4-pregnadiene-11β,17α-diol-3,20-dione 17a-(y-ethoxycarbonyl butyrate)] was tested, and the “R=A/B” value (edema) was 57, the “Anti-inflammatory activity ratio (A)” value (edema) was 0.68 and the “Thymolytic activity ratio (B)” value (thymus gland) was 0.012.

With CCOC(=O)CCC(=O)O[C@]1(C(=O)CCl)[C@@H](C)C[C@H]2[C@@H]3CCC4=CC(=O)C=C[C@]4(C)[C@@]3(F)[C@@H](O)C[C@@]21C [Example 17, 21-chloro-9α-fluoro-16β-methyl-1,4-pregnadien-11β,17α-diol-3,20-dione 17α-(β-ethoxycarbonyl propionate)] the “R=A/B” value (edema) was 80, the “Anti-inflammatory activity ratio (A)” value (edema) was 0.56 and the “Thymolytic activity ratio (B)” value (thymus gland) was 0.007.
